Literature values as cited in patent US20060275504A1, “Methods and compositions for augmenting cancer chemotherapeutic agents” (TTY BIOPHARM COMPANY LIMITED, priority 2005, published 2006).

## S1[As]2S[As]3S[As]2S[As]13 [As4S4, tetraarsenic tetraslfide]
arsenic-containing substances other than arsenic trioxide (Wang Z. Y. 2001)
  complete remission rates: 84.9%

## O=C1O[C@H]([C@@H](O)CO)C(O)=C1O [Ascorbic acid]
MDA-MB-231; MDA-MB-231, ascorbic acid alone
  concentration exhibiting cytotoxic activity: 10^2-10^3 μM
MDA-MB-231; MDA-MB-231, ascorbic acid at non-cytotoxic (1 μM) and moderately cytotoxic (10^2 μM) concentration
  effect on cytotoxicity of DOX, DDP and TX: improved the cytotoxicity of DOX, DDP and TX significantly
MCF-7; MCF-7, ascorbic acid alone
  concentration exhibiting cytotoxic activity: 10^2-10^3 μM
MCF-7; MCF-7, ascorbic acid at non-cytotoxic (1 μM) and moderately cytotoxic (10^2 μM) concentration
  effect on cytotoxicity of DOX, DDP and TX: improved the cytotoxicity of DOX, DDP and TX significantly

## arsenic trioxide
Intravenously 10 mg/d, patients with relapsed acute promyelocytic leukemia
  complete remission (CR) rate: 90%
